The numbers were not newly measured in patent US4663309A, “Novel peptide hormones with calcitonin-like activity” (University Patents, Inc., priority 1985, dated 1987), which cites them from elsewhere.

A word on the IC50: it is the concentration that gives 50% inhibition.

For series [1] the following is noted: literature value; cited from earlier work.
For series [2], the target named is T1, calcitonin receptors (brain particulate fraction) (Rattus norvegicus, UniProt P32214).
T1 sequence (P32214 25-516): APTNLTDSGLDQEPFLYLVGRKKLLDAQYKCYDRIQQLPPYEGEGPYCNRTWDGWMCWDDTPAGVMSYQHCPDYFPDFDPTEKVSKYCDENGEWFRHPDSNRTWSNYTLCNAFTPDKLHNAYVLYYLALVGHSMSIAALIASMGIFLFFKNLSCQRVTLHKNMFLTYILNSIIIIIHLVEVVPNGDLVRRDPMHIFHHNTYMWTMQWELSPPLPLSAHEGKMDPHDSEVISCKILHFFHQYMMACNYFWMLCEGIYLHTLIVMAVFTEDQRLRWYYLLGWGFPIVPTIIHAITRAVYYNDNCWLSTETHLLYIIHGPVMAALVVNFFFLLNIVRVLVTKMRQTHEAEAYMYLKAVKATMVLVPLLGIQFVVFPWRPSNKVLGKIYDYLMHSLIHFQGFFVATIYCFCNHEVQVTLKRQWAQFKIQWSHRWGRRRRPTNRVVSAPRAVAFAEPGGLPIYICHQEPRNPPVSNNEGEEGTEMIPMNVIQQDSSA
On the set-up: from tissue. The settings on record: rat brain homogenates; literature value; read-out: IC50, [125I]-SCT-I binding to rat brain, value found by Nakamuta et al.; cited from earlier work.

Take porcine calcitonin [PCT]: the “α-helicity in 50% 2-chloroethanol (Brewer and Edelhoch)” value in series [1] is listed as 50%. For the same substance, the IC50 in series [2] was 0.017 µM.
